US8178530B2, “Imidazolopyrazine compounds useful for the treatment of degenerative and inflammatory diseases” (Janssen Pharmaceutica NV, priority 2006, dated 2012)

Tests used:
MMP1 expression by SFs = assay: 'MMP assay': MMP1 expression by 'complex trigger' activated synovial fibroblasts (MMP1 ELISA); assay type: cell-based, human; settings: Homo sapiens, Fibroblast, RASFs, 48 hrs
MAPKAPK5 = biological target: T1, MAPKAPK5 (Homo sapiens, UniProt Q8IW41); assay: MAPKAP-K5 assay (FlashPlate, 33P-ATP); assay type: biochemical; settings: 0.6 μM ATP, 30 minutes at room temperature
T1 construct: 1 mU MAPKAP-K5
T1 sequence (Q8IW41 1-473): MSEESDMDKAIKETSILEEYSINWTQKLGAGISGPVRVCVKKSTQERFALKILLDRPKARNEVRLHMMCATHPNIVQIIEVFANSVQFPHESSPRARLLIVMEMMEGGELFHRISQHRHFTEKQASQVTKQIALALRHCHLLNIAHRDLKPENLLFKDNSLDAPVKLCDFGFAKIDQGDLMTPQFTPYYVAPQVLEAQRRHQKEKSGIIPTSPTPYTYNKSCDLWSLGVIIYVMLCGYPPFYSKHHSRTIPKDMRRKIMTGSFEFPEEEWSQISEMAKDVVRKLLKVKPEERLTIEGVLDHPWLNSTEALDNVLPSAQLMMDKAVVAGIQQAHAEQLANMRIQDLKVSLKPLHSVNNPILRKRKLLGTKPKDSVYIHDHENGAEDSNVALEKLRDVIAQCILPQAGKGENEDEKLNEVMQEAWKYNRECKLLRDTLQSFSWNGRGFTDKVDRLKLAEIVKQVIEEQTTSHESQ
Description: 3 μM MAPKAP-K5 peptide substrate

SMILES	EC50 (MMP1 expression by SFs)	IC50 (MAPKAPK5)
CC(C)N1CCC(c2ccc(Nc3ncc(-c4cn[nH]c4)n4ccnc34)cc2)CC1 [Compound 202, [4-(1-Isopropylpiperidin-4-yl)phenyl]-[5-(1H-pyrazol-4-yl)imidazo[1,2-a]pyrazin-8-yl]amine]	> 1 µM	0.101 to 0.5 µM
NC(=O)c1ccc(-c2cnc(Nc3ccc(-n4cncn4)cc3)c3nccn23)cc1 [Compound 134]	0.101 to 0.5 µM	> 1 µM
CN1CCN(c2ccc(Nc3ncc(-c4ccc(C(=O)NC5CC5)cc4)n4ccnc34)cc2)CC1 [Compound 117]	> 1 µM	> 1 µM
NC(=O)c1cc(-c2cnc(Nc3ccc(NC(=O)c4ccccc4)nc3)c3nccn23)cs1 [Compound 195]	> 1 µM	> 1 µM
CN1CCN(C(=O)c2ccc(Nc3ncc(-c4cn[nH]c4)n4ccnc34)cc2)CC1 [Compound 57]	> 1 µM	0.101 to 0.5 µM
c1cn2c(-c3ccc4[nH]ccc4c3)cnc(Nc3ccc(N4CCOCC4)cc3)c2n1 [Compound 21]	> 1 µM	> 1 µM
COc1cc(Nc2ncc(-c3csc(C(N)=O)c3)n3ccnc23)ccc1C(=O)NCc1ccc(C)nc1 [Compound 190, 4-(8-{3-Methoxy-4-[(6-methylpyridin-3-ylmethyl)carbamoyl]phenylamino}imidazo[1,2-a]pyrazin-5-yl)thiophene-2-carboxylic acid amide]	0.101 to 0.5 µM	> 1 µM
CCN(CC)CCNC(=O)c1ccc(Nc2ncc(-c3cn[nH]n3)n3ccnc23)cc1 [Compound 84]	> 1 µM	0.501 to 1 µM
O=C1NCc2cc(-c3cnc(Nc4ccc(N5CCOCC5)cn4)c4nccn34)ccc21 [Compound 211]	> 1 µM	0.101 to 0.5 µM
NC(=O)Cn1cc(-c2cnc(Nc3ccc(N4CCOCC4)cc3)c3nccn23)cn1 [Compound 24]	> 1 µM	> 1 µM
CC(C)N1CCC(c2ccc(Nc3ncc(-c4csc(C(N)=O)c4)n4ccnc34)cc2)CC1 [Compound 199, 4-{8-[4-(1-Isopropylpiperidin-4-yl)phenyl-amino]imidazo[1,2-a]pyrazin-5-yl}thiophene-2-carboxylic acid amide]	0.101 to 0.5 µM	0.101 to 0.5 µM
CCN(CC)CCNC(=O)c1ccc(Nc2ncc(C#N)n3ccnc23)cc1 [Compound 101]	> 1 µM	> 1 µM
CCN(CC)CCNC(=O)c1ccc(Nc2ncc(-c3nc[nH]n3)n3ccnc23)cc1 [Compound 105]	> 1 µM	> 1 µM
CCN(CCO)c1ccc(Nc2ncc(-c3cccc(C(N)=O)c3)n3ccnc23)cc1 [Compound 2]	> 1 µM	> 1 µM
CN1CCN(S(=O)(=O)c2ccc(Nc3ncc(-c4cn[nH]c4)n4ccnc34)cc2)CC1 [Compound 70]	> 1 µM	> 1 µM
Cc1cnc2c(Nc3ccc(N4CCOCC4)cc3)ncc(-c3ccc(C(N)=O)cc3)n12 [Compound 130, 4-[3-Methyl-8-(4-morpholin-4-ylphenylamino)imidazo[1,2-a]pyrazin-5-yl]benzamide]	> 1 µM	> 1 µM
CC(=O)Nc1ccc(Nc2ncc(-c3cn[nH]c3)n3ccnc23)cc1 [Compound 31]	> 1 µM	0.501 to 1 µM
O=C(Nc1ccc(Nc2ncc(-c3cn[nH]c3)n3ccnc23)cn1)c1ccccc1 [Compound 183, N-{5-[5-(1H-Pyrazol-4-yl)imidazopyrazin-8-ylamino]pyridin-2-yl}benzamide]	0.101 to 0.5 µM	> 1 µM
CCOc1cc(-c2cnc(Nc3ccc(N4CCOCC4)cc3)c3nccn23)ccn1 [Compound 107]	> 1 µM	> 1 µM
CC(C)N1CCN(c2ccc(Nc3ncc(-c4ccc5c(c4)C(C)(C)NC5=O)n4ccnc34)cc2)CC1 [Compound 227]	> 1 µM	> 1 µM

SMILES	EC50 (MMP1 expression by SFs)	IC50 (MAPKAPK5)
COc1cccc(Nc2ncc(-c3ccc(C(N)=O)cc3)n3ccnc23)c1 [Compound 19]	0.501 to 1 µM	> 1 µM
CCN(CC)CCNC(=O)c1ccc(Nc2ncc(-c3ccc(C(=O)O)cc3)n3ccnc23)cc1 [Compound 47]	> 1 µM	> 1 µM
CN1CCN(c2ccc(Nc3ncc(-c4cncc(C(N)=O)c4)n4ccnc34)cc2)CC1 [Compound 121, 5-{8-[4-(4-Methyl-piperazin-1-yl)-phenylamino]-imidazo[1,2-a]pyrazin-5-yl}-nicotinamide]	> 1 µM	> 1 µM
CCN(CC)CCNC(=O)c1ccc(Nc2ncc(-c3ccc(-c4nn[nH]n4)cc3)n3ccnc23)cc1 [Compound 60]	> 1 µM	> 1 µM
CCN(CC)CCNC(=O)c1ccc(Nc2ncc(-c3cccnc3)n3ccnc23)cc1 [Compound 72]	> 1 µM	> 1 µM
NC(=O)c1ccc(-c2cnc(Nc3ccc(C(=O)NCc4cccnc4)cc3)c3nccn23)cc1 [Compound 104]	> 1 µM	> 1 µM
CCN(CC)CCNC(=O)c1ccc(Nc2ncc(-c3cccs3)n3ccnc23)cc1 [Compound 78]	> 1 µM	> 1 µM
NC(=O)c1ccc(Nc2ncc(-c3ccc(C(=O)O)cc3)n3ccnc23)cc1 [Compound 52]	> 1 µM	> 1 µM
Fc1ccc(Nc2ncc(-c3cn[nH]c3)n3ccnc23)cc1Cl [Compound 17]	> 1 µM	> 1 µM
NC(=O)c1ccc(-c2cnc(Nc3ccc(N)cc3)c3nccn23)cc1 [Compound 18]	> 1 µM	> 1 µM
CC(C)N1CCN(c2ccc(Nc3ncc(-c4cc5c(o4)CNC5=O)n4ccnc34)cc2)CC1 [Compound 222]	0.501 to 1 µM	0.101 to 0.5 µM
COc1cc(Nc2ncc(-c3csc(C(N)=O)c3)n3ccnc23)ccc1C(=O)NCc1ccccc1 [Compound 191]	> 1 µM	> 1 µM
CN1CCN(c2ccc(Nc3ncc(-c4ccc(C(=O)O)cc4)n4ccnc34)cc2)CC1 [Compound 43]	> 1 µM	> 1 µM
O=C(NCCc1c[nH]c2ccccc12)c1ccc(Nc2ncc(-c3cn[nH]c3)n3ccnc23)cc1 [Compound 94]	> 1 µM	0.501 to 1 µM
Cc1nc(-c2cnc(Nc3ccc(N4CCOCC4)cc3)c3nccn23)n[nH]1 [Compound 100]	> 1 µM	> 1 µM
CN1CCN(c2ccc(Nc3ncc(-c4ccc(C(N)=O)c(N(C)C)c4)n4ccnc34)cc2)CC1 [Compound 126, 2-Dimethylamino-4-{8-[4-(4-methyl-piperazin-1-yl)-phenylamino]-imidazo[1,2-a]pyrazin-5-yl}-benzamide]	> 1 µM	> 1 µM
CCN(CCO)c1ccc(Nc2ncc(-c3cn[nH]c3)n3ccnc23)c(C)c1 [Compound 12]	> 1 µM	> 1 µM
Nc1ccc(Nc2ncc(-c3cn[nH]c3)n3ccnc23)cc1 [Compound 15]	> 1 µM	> 1 µM
CCN(CC)CCNC(=O)c1ccc(Nc2ncc(-c3n[nH]c(C)n3)n3ccnc23)cc1 [Compound 106]	> 1 µM	> 1 µM
Nc1cc(C(=O)O)ccc1-c1cnc(Nc2ccc(N3CCOCC3)cc2)c2nccn12 [Compound 40]	> 1 µM	> 1 µM
